The values that follow come from PMC5623949, “Exploiting the 2-Amino-1,3,4-thiadiazole Scaffold To Inhibit Trypanosoma brucei Pteridine Reductase in Support of Early-Stage Drug Discovery” (ACS Omega, 2017).

Data set [1] deals with T1, hERG (Homo sapiens, UniProt Q12809).
T1 construct: gene KCNH2
Set-up: hERG inhibition liability assay.

Data set [2] deals with T. b. brucei Lister 427 bloodstream forms. Kind of data set: T. brucei resazurin assay for MTX potentiation and folic acid supplementation. In kind it is cell-based, Trypanosoma brucei brucei. The procedure: T. b. brucei Lister 427 bloodstream forms were grown at 37 °C and 5% CO2 in a complete HMI-9 medium, supplemented with 10% FCS and 100 UI/mL of penicillin/streptomycin. The cultures were diluted until a cell density of 2 × 10^6/mL was reached. The efficacy of compounds against T. brucei bloodstream forms was evaluated using a modified resazurin-based assay previously described.[46] The compounds were prepared from a stock solution in 10 mM DMSO and diluted in HMI-9 (supplemented or not with 1 mM folic acid, Sigma-Aldrich) to 40 μM work solution (0.4% DMSO, with the DMSO limit in the assay being 0.4%). […] The 40 μM work solution was then used to perform serial dilutions (1:2) in a 96-well plate. Upon compound addition to the test plate, the mid-log bloodstream forms were added (100 μL) in complete HMI-9 medium (supplemented or not with 1 mM folic acid) at a final cell density of 1 × 10^4/mL in a final well volume of 200 μL with a maximum DMSO concentration of 0.2%. Following incubation for 72 h at 37 °C and 5% CO2, 20 μL of 0.5 mM resazurin solution was added, and the plates were incubated further for 4 h under the same conditions. Fluorescence was measured at 540 and 620 nm excitation and emission wavelengths, respectively, using a Synergy 2 multi-mode reader (BioTek). […] This approach requires the use of both compounds at their EC50 potency in the combination, which is impossible to be detected for compound 4m having no intrinsic antiparasitic activity as a single agent at the tested concentrations. Folic acid (1 mM) was chosen on the basis of the following experiments. The stock solution of 10 mM folic acid dissolved in NaOH solution was used to perform a dose–response curve with folic acid alone to evaluate the maximum amount we could use without compromising parasite growth due to pH modification of the media. […] The IC50 values reported are the averages of the results obtained in at least two independent experiments. Pentamidine was used as the reference drug and internal control in all assays.

The target in data set [3] is T2, TbPTR1 (Trypanosoma brucei brucei, UniProt O76290).
T2 construct: made in house
T2 sequence (O76290 1-268): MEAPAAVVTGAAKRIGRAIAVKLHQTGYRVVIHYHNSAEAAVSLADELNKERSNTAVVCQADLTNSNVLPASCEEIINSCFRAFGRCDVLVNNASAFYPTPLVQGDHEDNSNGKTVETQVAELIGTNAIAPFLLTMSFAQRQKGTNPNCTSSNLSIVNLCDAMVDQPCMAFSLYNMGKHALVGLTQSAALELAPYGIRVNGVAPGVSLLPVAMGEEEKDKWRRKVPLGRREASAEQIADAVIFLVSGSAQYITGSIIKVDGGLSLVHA
Put plainly: biochemical. The conditions noted are these: for inhibition at 50 µM: 50 μM compound, read-out: % Inhibition TbPTR1 at 50 μM.

A short description of data set [4]: in vitro. Set-up: cytotoxicity, per cent cell growth of A549 cells. The note with it: human, a549 cells; read-out: % cell growth A549 at 10uM.
Data set [5] has as its system 786-O. Kind of data set: cells. Set-up: mitochondrial toxicity in 786-O renal carcinoma cells. The note with it: Homo sapiens, 786-0; mitochondrial toxicity.
For data set [6], the system named is T. b. brucei Lister 427 bloodstream forms. Put plainly: In vitro activity against T. brucei (HTS SYBR Green I growth inhibition assay). In kind it is cell-based, Trypanosoma brucei brucei. The note with it: for inhibition at 50 µM / EC50: Trypanosoma brucei; for inhibition at 50 µM: read-out: % Inhibition T. brucei at 50 μM; for % Antiparasitic Activity Tb brucei at 50uM: Table S1, compounds I-X.

Data set [7] addresses CYP2D6 (Homo sapiens, UniProt P10635). Kind of data set: in vitro. Set-up: cytochrome P450 isoform inhibition liability assay.
For data set [8], the target named is CYP2C9 (Homo sapiens, UniProt P11712). Kind of data set: in vitro. On the set-up: cytochrome P450 isoform inhibition liability assay.
CYP2C9, sequence (P11712 whole entry, canonical isoform): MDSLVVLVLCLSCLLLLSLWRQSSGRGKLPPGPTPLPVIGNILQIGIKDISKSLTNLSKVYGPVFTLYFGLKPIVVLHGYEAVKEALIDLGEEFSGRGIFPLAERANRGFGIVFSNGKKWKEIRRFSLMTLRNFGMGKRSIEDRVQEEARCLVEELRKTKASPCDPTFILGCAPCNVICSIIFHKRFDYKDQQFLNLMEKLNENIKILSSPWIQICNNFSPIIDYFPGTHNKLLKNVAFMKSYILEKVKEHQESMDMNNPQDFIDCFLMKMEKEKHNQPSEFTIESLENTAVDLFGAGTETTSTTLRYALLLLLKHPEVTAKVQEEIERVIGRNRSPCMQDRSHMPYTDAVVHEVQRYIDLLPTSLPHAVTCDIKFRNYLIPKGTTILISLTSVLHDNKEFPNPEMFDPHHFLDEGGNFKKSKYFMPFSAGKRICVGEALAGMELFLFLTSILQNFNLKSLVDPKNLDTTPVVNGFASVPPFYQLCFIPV
Data set [9] addresses T3, CYP1A2 (Homo sapiens, UniProt P05177).
T3 sequence (P05177 1-516): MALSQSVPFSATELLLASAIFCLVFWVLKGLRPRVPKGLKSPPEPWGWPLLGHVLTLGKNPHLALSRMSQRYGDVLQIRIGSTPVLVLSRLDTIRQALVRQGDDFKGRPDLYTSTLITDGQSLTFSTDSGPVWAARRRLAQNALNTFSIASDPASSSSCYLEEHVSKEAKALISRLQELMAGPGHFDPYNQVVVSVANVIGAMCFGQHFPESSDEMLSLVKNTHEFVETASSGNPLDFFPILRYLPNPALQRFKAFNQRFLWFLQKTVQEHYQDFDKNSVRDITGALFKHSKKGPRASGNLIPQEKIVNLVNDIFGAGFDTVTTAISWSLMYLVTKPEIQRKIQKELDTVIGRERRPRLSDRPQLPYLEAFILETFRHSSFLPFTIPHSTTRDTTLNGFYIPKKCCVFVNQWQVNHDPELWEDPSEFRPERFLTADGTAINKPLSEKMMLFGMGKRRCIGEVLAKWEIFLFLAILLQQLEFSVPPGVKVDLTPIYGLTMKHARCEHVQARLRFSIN
Put plainly: in vitro. On the set-up: cytochrome P450 isoform inhibition liability assay.

Data set [10] deals with CYP2C19 (Homo sapiens, UniProt P33261). Put plainly: in vitro. Set-up: cytochrome P450 isoform inhibition liability assay.
CYP2C19, sequence (P33261 whole entry, canonical isoform): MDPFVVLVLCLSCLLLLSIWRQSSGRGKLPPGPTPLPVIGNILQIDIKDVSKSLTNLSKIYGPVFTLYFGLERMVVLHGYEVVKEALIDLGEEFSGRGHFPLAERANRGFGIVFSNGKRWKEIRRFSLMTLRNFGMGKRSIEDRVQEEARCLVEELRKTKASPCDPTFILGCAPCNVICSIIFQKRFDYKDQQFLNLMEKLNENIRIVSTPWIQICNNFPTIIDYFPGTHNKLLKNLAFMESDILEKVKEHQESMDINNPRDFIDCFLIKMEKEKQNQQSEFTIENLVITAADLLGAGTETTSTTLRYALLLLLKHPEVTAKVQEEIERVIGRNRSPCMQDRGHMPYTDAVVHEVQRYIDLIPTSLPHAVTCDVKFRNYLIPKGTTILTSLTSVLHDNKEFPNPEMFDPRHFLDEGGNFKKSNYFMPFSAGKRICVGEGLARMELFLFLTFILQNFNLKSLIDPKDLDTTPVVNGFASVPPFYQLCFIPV
The target in data set [11] is CYP3A4 (Homo sapiens, UniProt P08684). Kind of data set: in vitro. Set-up: cytochrome P450 isoform inhibition liability assay.
CYP3A4, sequence (P08684 whole entry, canonical isoform): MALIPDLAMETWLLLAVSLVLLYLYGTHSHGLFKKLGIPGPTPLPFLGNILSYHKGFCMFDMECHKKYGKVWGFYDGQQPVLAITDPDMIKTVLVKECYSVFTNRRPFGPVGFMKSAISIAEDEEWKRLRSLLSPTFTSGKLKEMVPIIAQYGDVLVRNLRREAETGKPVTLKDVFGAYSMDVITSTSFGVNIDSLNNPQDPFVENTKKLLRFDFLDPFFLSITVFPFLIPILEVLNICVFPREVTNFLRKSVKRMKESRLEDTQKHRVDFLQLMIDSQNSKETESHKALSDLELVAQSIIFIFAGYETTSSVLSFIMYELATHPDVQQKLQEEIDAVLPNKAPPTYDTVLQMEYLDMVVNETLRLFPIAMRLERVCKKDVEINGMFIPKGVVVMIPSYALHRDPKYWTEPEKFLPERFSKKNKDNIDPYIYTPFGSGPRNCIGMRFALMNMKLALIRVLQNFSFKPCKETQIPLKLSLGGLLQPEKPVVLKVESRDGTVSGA
Data set [12] is described as follows: in vitro. On the set-up: cytotoxicity, per cent cell growth of WI-38 fibroblasts. The note with it: human, wi-38 cells; read-out: % cell growth W1-38 at 10uM.
The test system of data set [13] is mammalian cells. Put plainly: Toxicity against mammalian cells (Table S1). In kind it is cell-based. The note with it: read-out: IC50 vs mam.cells.
Data set [14] concerns the target T2, TbPTR1. Kind of data set: TbPTR1 direct enzyme inhibition assay for compounds I-X (Table S1). It is filed as biochemical. The conditions noted are these: for inhibition at 50 µM: 10 min, pH 6, 50 µM compound; for Ki: competitive inhibition mechanism assumed. How it is done:
(b) PTR1 Enzyme inhibition. Compounds ICX were tested following the direct assay. The samples were incubated for
10 minutes at 30 °C, in buffer containing 50 mM Na citrate pH 3.7, TbPTR1, BH2 20 μM. (Dawson et al. Mol.
Microbiol. 2006, 61 (6), 1457–1468). Reaction start with NADPH. Compound concentrations depend on solubility and
ranged between 10C300 μM. Ki was calculated assuming a competitive inhibition mechanism.

The target in data set [15] is T4, hDHFR (Homo sapiens, UniProt P00374).
T4 construct: gene DHFR
T4 sequence (P00374 1-187): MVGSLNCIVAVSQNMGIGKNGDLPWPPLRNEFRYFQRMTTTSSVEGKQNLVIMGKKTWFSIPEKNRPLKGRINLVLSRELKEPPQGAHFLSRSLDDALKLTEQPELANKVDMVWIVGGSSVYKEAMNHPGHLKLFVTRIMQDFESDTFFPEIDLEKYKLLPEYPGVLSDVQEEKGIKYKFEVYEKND
Put plainly: biochemical. On the set-up: human DHFR enzyme inhibition. The method, boiled down:
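hDHFR inhibition tested at a single concentration of 100 μM, expressed as percent inhibitory activity.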

Setting [16] is: standard deviation within ±10% of the value.

Where two headings read alike, the source gives them in different places.

T1 sequence (Q12809 whole entry): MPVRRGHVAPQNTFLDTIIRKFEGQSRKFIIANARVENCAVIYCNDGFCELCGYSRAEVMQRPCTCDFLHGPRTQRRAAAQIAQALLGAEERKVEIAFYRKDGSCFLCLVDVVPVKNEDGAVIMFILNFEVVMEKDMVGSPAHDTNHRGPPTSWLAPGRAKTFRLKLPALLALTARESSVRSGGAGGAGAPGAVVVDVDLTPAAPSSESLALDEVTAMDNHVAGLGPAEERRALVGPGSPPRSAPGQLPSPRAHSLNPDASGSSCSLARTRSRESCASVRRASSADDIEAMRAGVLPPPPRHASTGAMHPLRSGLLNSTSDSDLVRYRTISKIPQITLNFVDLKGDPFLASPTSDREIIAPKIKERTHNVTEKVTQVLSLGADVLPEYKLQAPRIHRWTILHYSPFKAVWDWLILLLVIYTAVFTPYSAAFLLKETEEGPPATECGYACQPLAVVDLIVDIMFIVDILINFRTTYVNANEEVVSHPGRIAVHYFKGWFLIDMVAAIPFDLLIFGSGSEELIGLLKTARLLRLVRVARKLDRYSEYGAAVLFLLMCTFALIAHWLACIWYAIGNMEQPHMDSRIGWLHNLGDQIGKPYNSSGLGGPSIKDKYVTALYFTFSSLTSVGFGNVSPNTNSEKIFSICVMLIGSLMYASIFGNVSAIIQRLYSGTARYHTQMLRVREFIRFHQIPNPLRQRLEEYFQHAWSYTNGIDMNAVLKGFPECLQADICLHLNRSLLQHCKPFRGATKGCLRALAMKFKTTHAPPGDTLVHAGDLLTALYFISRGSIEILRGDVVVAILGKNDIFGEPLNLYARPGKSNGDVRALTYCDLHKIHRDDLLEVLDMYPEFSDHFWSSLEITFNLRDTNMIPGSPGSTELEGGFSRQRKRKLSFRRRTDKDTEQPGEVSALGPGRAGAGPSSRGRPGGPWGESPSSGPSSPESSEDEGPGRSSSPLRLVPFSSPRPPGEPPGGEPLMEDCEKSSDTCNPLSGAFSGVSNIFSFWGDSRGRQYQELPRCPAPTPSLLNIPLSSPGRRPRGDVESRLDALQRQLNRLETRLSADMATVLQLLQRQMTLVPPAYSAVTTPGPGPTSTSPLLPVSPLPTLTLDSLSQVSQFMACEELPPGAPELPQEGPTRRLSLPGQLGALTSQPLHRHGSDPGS
CYP2D6, sequence (P10635 whole entry, canonical isoform): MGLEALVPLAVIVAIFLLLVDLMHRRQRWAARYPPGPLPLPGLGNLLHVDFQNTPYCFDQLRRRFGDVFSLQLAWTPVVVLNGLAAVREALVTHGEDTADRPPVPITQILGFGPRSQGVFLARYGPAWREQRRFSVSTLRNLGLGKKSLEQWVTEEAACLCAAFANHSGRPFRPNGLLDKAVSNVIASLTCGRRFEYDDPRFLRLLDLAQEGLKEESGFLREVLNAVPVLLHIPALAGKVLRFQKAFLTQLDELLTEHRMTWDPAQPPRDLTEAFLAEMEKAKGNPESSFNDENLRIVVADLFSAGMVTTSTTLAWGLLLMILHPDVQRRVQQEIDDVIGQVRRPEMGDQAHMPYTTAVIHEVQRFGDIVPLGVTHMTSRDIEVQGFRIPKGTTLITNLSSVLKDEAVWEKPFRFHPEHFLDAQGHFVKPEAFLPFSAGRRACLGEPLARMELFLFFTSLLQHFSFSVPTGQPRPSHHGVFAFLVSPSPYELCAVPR

For the compound `Nc1nnc(NCc2cccs2)s1` [4c], the inhibition (as a rule, the drop in the measured response relative to a control, in per cent) at 10 µM in [1] was 87.3 ± 5.7%; in [5], 4.8 ± 2.9%; in [7] it was 27.4 ± 5.7%; in [8] it was -7.7 ± 4.7%; in [9], -3.2 ± 2.9%; in data set [10] it was -13.9 ± 18%. Further, the inhibition at 10 µM in data set [11] is -2.6 ± 4.5%. For the same compound, in [2] (compound alone, 4m at 50 μM), the “antiparasitic effect as single agent” value was “low T. brucei cell inhibitory activity”. The values for the inhibition at 50 µM in data set [3] and in [6] (setting [16]) were 50.6 ± 2.6% and below 0%, respectively. In addition, in data set [3] (dose-response 0.001-100 μM), the midpoint of inhibition, the IC50, lay at 112 µM. The viability at 10 µM in data set [4] was determined as 142 ± 13.8%; in data set [12] it was 96.3 ± 7.6%.

Consider `Nc1nnc(CCCl)s1` [I], for which, in data set [13], the IC50 – broadly, the concentration that inhibits the measured activity by half – worked out at 4.2 ± 0.4 µM. In addition, the “% Antiparasitic Activity Tb brucei at 50uM” value in data set [6] is recorded as 90%.

As to `N=C(N)c1ccc(OCCCCCOc2ccc(C(=N)N)cc2)cc1` [Pentamidine, reference compound], the EC50 (commonly the concentration giving half of the maximal effect) in data set [2] (Trypanosoma brucei, read-out: average EC50 T. brucei (reference drug, resazurin assay)) stood at 0.00228 ± 0.00118 µM; in [6] (read-out: EC50 T. b. brucei (reference compound, SYBR Green assay)), 0.0038 ± 0.00048 µM.

Regarding `Nc1nnc(-c2cnccc2N)s1` [III], in data set [14], the inhibition at 50 µM came out at 15% and the inhibitory constant (Ki) (as a rule, a measure of affinity in units of concentration, obtained from inhibition or displacement) was found to be 53 µM. In [13], the IC50 is above 50 µM. The “EC50 T. b. brucei (compounds I-IV)” value in data set [6] (Table S1) was “not detectable”.

`Nc1nnc(N)s1` [4a]: the inhibition at 10 µM in [1] was 4.7 ± 3.6%; in data set [5] it was 1.7 ± 6.6%; in data set [7], -15.9 ± 8.6%; in [8], 46 ± 1.7%; in data set [9] it was 40.5 ± 3%; in data set [10], 62.3 ± 8.3%. Besides, the inhibition at 10 µM in data set [11] stood at 53.4 ± 4.4%. Besides, the inhibition at 100 µM in data set [15] is 36%. In addition, the inhibition at 50 µM is 14.2 ± 0.8% in data set [3] and below 0% in data set [6] (setting [16]). Also, the viability at 10 µM stood at 113 ± 4.4% in data set [4] and 81.3 ± 13.5% in data set [12].

Turning to `Nc1nnc(-c2cccc(Br)c2)s1` [1i], the inhibition at 10 µM in data set [1] was 14.6 ± 4.2%; in data set [5] it was -3.6 ± 9.1%; in [7] it was -45.1 ± 6.2%; in data set [8], -47.7 ± 2%; in data set [9], 47 ± 2%; in data set [10], -30.9 ± 4.3%. For the same compound, the inhibition at 10 µM in data set [11] was -14.1 ± 6%. Further, the inhibition at 100 µM in [15] came out at 19%. Moreover, the inhibition at 50 µM in data set [3] stood at 34.2 ± 1.5%; in data set [6] (setting [16]), 1.8%. The values for the viability at 10 µM in data set [4] and in [12] were 135 ± 4.6% and 111 ± 12.3%, respectively.

As to `Nc1nnc(-c2ccc3[nH]nnc3c2)s1` [IV], in data set [14], the inhibition at 50 µM was found to be 10% and the Ki is 88 µM. For the same compound, in data set [13], the IC50 turned out to be 51.5 µM. Besides, the “% Antiparasitic Activity Tb brucei at 50uM” value in data set [6] amounted to 67%. Also, the EC50 in data set [6] (Table S1, read-out: EC50 T. b. brucei (compounds I-IV)) came out at 170 µM.

On to `Nc1nnc(-c2cccc(-c3ccc4c(c3)OCO4)c2)s1` [2g], for which the inhibition at 10 µM in data set [1] is 27.9 ± 5.2%; in data set [15], 12%; in data set [5], -2.6 ± 13.7%; in data set [7] it was 27 ± 2.36%; in data set [8], 28.7 ± 2.2%; in data set [9], 97.8 ± 1%. The inhibition at 10 µM was found to be 34.3 ± 3.7% in data set [10] and 28.2 ± 5% in data set [11]. Further, the inhibition at 50 µM came to 4 ± 0.4% in data set [3] and 10.4% in data set [6] (setting [16]). Besides, the viability at 10 µM is 116 ± 8.3% in data set [4] and 130 ± 14.1% in [12].

Regarding `Nc1nnc(-c2ccc(Cl)c(Cl)c2)s1` [1l], the inhibition at 10 µM in [1] came out at 91.7 ± 8.4%; in data set [15], 18%; in [5], 7.6 ± 8.3%; in [7] it was 52.7 ± 2.1%; in data set [8], 46.7 ± 1.5%; in data set [9], 80.6 ± 1.6%. The inhibition at 10 µM in data set [10] amounted to 64.9 ± 1.7%; in data set [11], 35.7 ± 7.9%. For the same compound, the inhibition at 50 µM stood at 15.6 ± 0.7% in data set [3] and 30% in [6] (setting [16]). For the same compound, the viability at 10 µM was 107 ± 1.2% in data set [4] and 77.8 ± 22.1% in data set [12].

Regarding `Nc1nnc(-c2ccc(O)c(O)c2)s1` [1d, 3′,4′-dihydroxy-phenyl-1,3,4-thiadiazole], the inhibition at 10 µM is 19.2 ± 6.4% in data set [1]; -0.1 ± 6.2% in data set [5]; -28.4 ± 10.1% in data set [7]; -19.5 ± 5.6% in data set [8]; -16.8 ± 6.9% in data set [9]; -32.3 ± 7.8% in data set [10]. The inhibition at 10 µM in data set [11] is -8.1 ± 3.2%. Also, in [15], the inhibition at 100 µM was determined as 62%. In addition, the results for the inhibition at 50 µM in data set [3] and in data set [6] (setting [16]) were 16.7 ± 1% and 78.6%, respectively. Besides, the viability at 10 µM in data set [4] was found to be 145.9 ± 0.7%; in [12], 99.9 ± 17.5%. Moreover, the EC50 in data set [6] (standard deviation within ±10% of the value, read-out: EC50 T. brucei) worked out at 18.3 µM.
